Source: patent US9669031B2, “MNK inhibitors and methods related thereto” (eFFECTOR Therapeutics, Inc., priority 2014, dated 2017)
Where two headings read alike, the source gives them in different places.

Tests used:
[1] = Balb/c, mouse, in vivo, po, 10 mg/kg
in vivo = details: Balb/c, mouse, po, 10 mg/kg; for AUC(0-t): AUClast; for half-life: T½

Row | Compound | Tlast ([1]; female) [h] | AUC(0-t) (in vivo; female) [ng·h/mL] | Cmax (in vivo; female) [ng/mL] | Tmax (in vivo; female) [h] | half-life (in vivo; female) [h] | Tlast ([1]; male) [h] | AUC(0-t) (in vivo; male) [ng·h/mL] | Cmax (in vivo; male) [ng/mL] | Tmax (in vivo; male) [h]
1 | CC1(C)NC(=O)c2c(Cl)cc(Nc3cc(NC(=O)C4CC4)ncn3)c(=O)n21 [Cpd. No. 43, N-[6-[(8-chloro-3,3-dimethyl-1,5-dioxo-2H-imidazo[1,5-a]pyridin-6-yl)amino]pyrimidin-4-yl]cyclopropanecarboxamide] | 8 | 132 | 21.8 | 2 | 6.75 | – | – | – | –
2 | CC1(C(F)(F)F)NC(=O)c2ccc(Nc3ccncn3)c(=O)n21 (stereo not drawn) [Cpd. No. 14, 3-methyl-6-(pyrimidin-4-ylamino)-3-(trifluoromethyl)-2,3-dihydroimidazo[1,5-a]pyridine-1,5-dione] | – | – | – | – | – | 8 | 255 | 405 | 0.5
3 | CC1(CC(F)(F)F)NC(=O)c2ccc(Nc3cc(NC(=O)C4CC4)ncn3)c(=O)n21 (stereo not drawn) [Cpd. No. 22, N-(6-((3-methyl-1,5-dioxo-3-(2,2,2-trifluoroethyl)-1,2,3,5-tetrahydroimidazo[1,5-a]pyridin-6-yl)amino)pyrimidin-4-yl)cyclopropanecarboxamide] | 8 | 1620 | 371 | 2 | 1.93 | – | – | – | –
4 | CC1(C2CCCC2)NC(=O)c2ccc(Nc3cc(NC(=O)C4CC4)ncn3)c(=O)n21 (stereo not drawn) [Cpd. No. 23, N-[6-[(3-cyclopentyl-3-methyl-1,5-dioxo-2H-imidazo[1,5-a]pyridin-6-yl)amino]pyrimidin-4-yl]cyclopropanecarboxamide] | 8 | 75.7 | 17.5 | 1 | 3.49 | – | – | – | –
5 | O=C1NC2(CCCNC2)n2c1ccc(Nc1ccncn1)c2=O (stereo not drawn) [Cpd. No. 20, 6-(pyrimidin-4-ylamino)-1H-spiro[imidazo[1,5-a]pyridine-3,3′-piperidine]-1,5(2H)-dione] | 4 | 2090 | 2240 | 0.5 | 0.643 | – | – | – | –
6 | O=C1NC2(CCCCC2)n2c1c(Cl)cc(Nc1cc(NC(=O)C3CC3)ncn1)c2=O [Cpd. No. 45, N-(6-((8′-chloro-1′,5′-dioxo-1′,5′-dihydro-2′H-spiro[cyclohexane-1,3′-imidazo[1,5-a]pyridin]-6′-yl)amino)pyrimidin-4-yl)cyclopropanecarboxamide] | 8 | 42.9 | 9.16 | 2 | 7.55 | – | – | – | –
7 | CC1(C(F)(F)F)NC(=O)c2ccc(Nc3cc(NC(=O)C4CC4)ncn3)c(=O)n21 (stereo not drawn) [Cpd. No. 24, N-[6-[[3-methyl-1,5-dioxo-3-(trifluoromethyl)-2H-imidazo[1,5-a]pyridin-6-yl]amino]pyrimidin-4-yl]cyclopropanecarboxamide] | 8 | 921 | 192 | 2 | 1.91 | – | – | – | –
8 | Cl.O=C1NC2(CCCCC2)n2c1c(Cl)cc(Nc1ccncn1)c2=O [Cpd. No. 109, 8-chloro-6-(pyrimidin-4-ylamino)spiro[2H-imidazo[1,5-a]pyridine-3,1′-cyclohexane]-1,5-dione hydrochloride] | – | – | 630 | 0.3 | 2.5 | – | – | – | –
9 | Cl.O=C1NC2(CCC(F)(F)CC2)n2c1c(Cl)cc(Nc1ccncn1)c2=O [Cpd. No. 110, 8-chloro-4′,4′-difluoro-6-(pyrimidin-4-ylamino)spiro[2H-imidazo[1,5-a]pyridine-3,1′-cyclohexane]-1,5-dione hydrochloride] | – | – | 1700 | 0.3 | 2.6 | – | – | – | –
10 | Cl.O=C1NC2(CCCNC2)n2c1c(Cl)cc(Nc1ccncn1)c2=O (stereo not drawn) [Cpd. No. 54, 8-chloro-6-(pyrimidin-4-ylamino)spiro[2H-imidazo[1,5-a]pyridine-3,3′-piperidine]-1,5-dione hydrochloride] | – | – | 1050 | 0.5 | – | – | – | – | –
